Paper PMC9945734 (BMC Medicine, 2023)
Like-named read-outs stand apart in the source and are kept apart here.

Legend:
[1] = test system: PC-3 (KLF5 null) cells expressing KLF5^K369Q; experiment: CCK-8 cell viability assay; assay type: cell-based, human; conditions: Homo sapiens; PC-3 (KLF5 null), KLF5^K369Q; CCK-8, 48 h
Experimental: (§1) According to the manufacturer's instructions, cell viability was measured using a kit from Beyotime Biotechnology. Briefly, cells were seeded onto 96-well plates at 5 × 10^3 cells per well, incubated overnight, and then treated for 48 h with drugs at 0, 0.02, 0.05, 0.14, 0.41, 1.23, 3.7, 11.1, 33.3, and 100 μM. Four drugs were analyzed: furagin, nifuratel, nitazoxanide, and retapamulin. At the end of drug treatment, the medium was removed, the CCK-8 solution was added into each well at 100 μL/well and incubated for 1.5 h at 37°C, and the optical density (OD) was measured at 450 nm using a microplate reader (BioTek).
(§2) We also tested a wider range of NTZ concentrations in PC-3-KQ and DU 145-KQ cells using the CCK-8 assay by seeding 2 × 10^3 cells and 2.5 × 10^3 cells onto each well of 96-well plates. PC-3-KQ cells were treated with NTZ at 0, 0.01, 0.1, […], 2.5, and 5 μM, while DU 145-KQ cells were treated with NTZ at 0, 0.01, 0.1, 5, 10, and 20 μM for 0, 24, 48, and 72 h. The number of viable cells was determined using the CCK-8 solution as described above.

[2] = test system: DU 145 (KLF5 null) cells expressing KLF5^K369Q; experiment: CCK-8 cell viability assay; assay type: cell-based, human; conditions: Homo sapiens; DU 145 (KLF5 null), KLF5^K369Q; CCK-8, 48 h
Experimental: as §1, §2

[3] = test system: DU 145 (KLF5 null) cells expressing KLF5^K369R; experiment: CCK-8 cell viability assay; assay type: cell-based; conditions: Homo sapiens, CCK-8, 48 h
Experimental: as §1

[4] = test system: PC-3 (KLF5 null) cells expressing KLF5; experiment: CCK-8 cell viability assay; assay type: cell-based; conditions: Homo sapiens, CCK-8, 48 h
Experimental: as §1

[5] = test system: DU 145 (KLF5 null) cells expressing KLF5; experiment: CCK-8 cell viability assay; assay type: cell-based; conditions: Homo sapiens, CCK-8, 48 h
Experimental: as §1

[6] = test system: PC-3 (KLF5 null) cells expressing KLF5^K369R; experiment: CCK-8 cell viability assay; assay type: cell-based; conditions: Homo sapiens, CCK-8, 48 h
Experimental: as §1

PC-3-KQ cells = experiment: 3D spheroid invasion assay and screening of FDA-approved drugs; assay type: cell-based, human; conditions: for activity at 0.01 µM / activity at 0.1 µM / activity at 1 µM / activity at 10 µM / inhibition at 0.1 µM: Homo sapiens; for activity at 0.01 µM / activity at 0.1 µM / activity at 1 µM / activity at 10 µM: 72 h, read-out: Invasion rates (%) of each drug’s multiple concentrations; for activity at 0.01 µM / activity at 0.1 µM / activity at 1 µM / activity at 10 µM / Invasion rates (%) of each drug’s multiple concentrations (μM): compared to vehicle control; for inhibition at 0.1 µM: read-out: inhibition of cell invasion
How it was run: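 Cells were clustered into spheroids by centrifugation and grown 3 days, then embedded in matrigel-medium containing drug on day 4 and cultured another 3 days. Drugs were screened at 10 μM first, then at 0–10 μM, in duplicate wells. Invasion area is total area minus core sphere area from phase-contrast images.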

KLF5^K369Q protein = molecular target: T1, KLF5^K369Q protein (Homo sapiens, UniProt Q13887, K369Q); experiment: Fluorescence titration (quenching) of KLF5 protein; conditions: read-out: binding constant Kd
T1 construct: made in house; host or cells: E. coli BL21 DE3
Experimental: (§3) Wild-type or mutant KLF5 protein at 1 μM in 2 mL PBS was measured for fluorescence spectrum using a fluorescence spectrometer (HORIBA, Kyoto, Japan), and the fluorescence spectra were obtained for wavelengths of 300–500 nm. NTZ with various concentration ranges and various increments were used in the analysis, including 0.1–1 μM with an increment of 0.1 μM, 1–5 μM with an increment of 0.5 μM, 5–10 μM with an increment of 1 μM, and 10–30 μM with an increment of 5 μM. The incubation with NTZ was for 5 s at room temperature. Data were processed and fitted to obtain the binding affinities using the Origin software (OriginLab, Northampton, MA, USA), and Kd values were determined by the responses at […] wavelength.

KLF5 protein = molecular target: T2, KLF5 protein (Homo sapiens, UniProt Q13887); experiment: Fluorescence titration (quenching) of KLF5 protein; conditions: read-out: binding constant Kd
T2 construct: made in house; host or cells: E. coli BL21 DE3
Experimental: as §3

KLF5^K369R protein = molecular target: T3, KLF5^K369R protein (Homo sapiens, UniProt Q13887, K369R); experiment: Fluorescence titration (quenching) of KLF5 protein; conditions: read-out: binding constant Kd
T3 construct: made in house; host or cells: E. coli BL21 DE3
Experimental: as §3

[7] = 0.01 μM (first column so headed), secondary screening of 87 hit compounds (Table S1)
[8] = 0.01 μM (first column so headed), third screening of 25 hit compounds (Table S2)
[9] = 0.01 μM (second column so headed), third screening of 25 hit compounds (Table S2)
[10] = 0.1 μM, secondary screening of 87 hit compounds (Table S1)
[11] = 0.1 μM, third screening of 25 hit compounds (Table S2)
[12] = 1 μM, secondary screening of 87 hit compounds (Table S1)
[13] = 1 μM, third screening of 25 hit compounds (Table S2)
[14] = 10 μM, secondary screening of 87 hit compounds (Table S1)
[15] = 10 μM, third screening of 25 hit compounds (Table S2)
[16] = 0.01 μM (second column so headed), secondary screening of 87 hit compounds (Table S1)

T3 sequence (Q13887 whole entry K369R): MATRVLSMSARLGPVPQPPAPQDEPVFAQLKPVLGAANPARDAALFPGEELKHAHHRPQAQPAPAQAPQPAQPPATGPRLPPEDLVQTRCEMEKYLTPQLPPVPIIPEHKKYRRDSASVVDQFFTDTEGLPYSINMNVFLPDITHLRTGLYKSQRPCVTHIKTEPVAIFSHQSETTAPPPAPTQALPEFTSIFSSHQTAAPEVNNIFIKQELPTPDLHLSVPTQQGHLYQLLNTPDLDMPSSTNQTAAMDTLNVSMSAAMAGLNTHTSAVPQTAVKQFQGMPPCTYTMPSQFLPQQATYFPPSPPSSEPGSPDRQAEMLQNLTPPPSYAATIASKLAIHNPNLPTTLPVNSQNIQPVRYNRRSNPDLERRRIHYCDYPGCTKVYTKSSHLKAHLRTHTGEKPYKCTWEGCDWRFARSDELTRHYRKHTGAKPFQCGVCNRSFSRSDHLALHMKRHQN
T2 sequence (Q13887 whole entry): as the sequence (Q13887 whole entry K369R) above, with R369K counted along it
T1 sequence (Q13887 whole entry K369Q): as the sequence (Q13887 whole entry K369R) above, with R369Q counted along it

SMILES | IC50 [1] [µM] | IC50 [2] [µM] | IC50 [3] [µM] | IC50 [4] [µM] | IC50 [5] [µM] | IC50 [6] [µM] | activity at 0.01 µM (PC-3-KQ cells; [7]) [%] | activity at 0.01 µM (PC-3-KQ cells; [8]) [%] | activity at 0.01 µM (PC-3-KQ cells; [9]) [%] | activity at 0.1 µM (PC-3-KQ cells; [10]) [%] | activity at 0.1 µM (PC-3-KQ cells; [11]) [%] | activity at 1 µM (PC-3-KQ cells; [12]) [%] | activity at 1 µM (PC-3-KQ cells; [13]) [%] | activity at 10 µM (PC-3-KQ cells; [14]) [%] | activity at 10 µM (PC-3-KQ cells; [15]) [%] | inhibition at 0.1 µM (PC-3-KQ cells) [%] | activity at 0.01 µM (PC-3-KQ cells; [16]) [%] | other results
C=C[C@]1(C)C[C@@H](OC(=O)CS[C@@H]2C[C@H]3CC[C@@H](C2)N3C)[C@]2(C)[C@H](C)CC[C@]3(CCC(=O)[C@H]32)[C@@H](C)[C@@H]1O [Retapamulin] | 12.6 ± 2.3 | 14.7 ± 1.5 | 11.1 ± 0.8 | 1.6 ± 0.3 | 13.7 ± 2.7 | 12.2 ± 1.1 | 7.43 | 74.4 | 94.3 | 7.18 | 4.92 | 7.28 | 1.65 | 4.68 | 2.42 | > 50 | – | –
O=C1CN(/N=C/C=C/c2ccc([N+](=O)[O-])o2)C(=O)N1 [Furagin] | 28.6 ± 1.9 | 63.3 ± 2.4 | 359 ± 127 | 17.3 ± 2.2 | 31.4 ± 4 | 101 ± 27.9 | 24.8 | 77.1 | 97.5 | 5.95 | 2.26 | 3.36 | 2.3 | 2.18 | 1.29 | > 50 | 42.2 | –
CC1(C)CCC(C)(C)c2cc(NC(=O)c3ccc(C(=O)O)cc3)ccc21 [Am80] | – | – | – | – | – | – | – | – | – | – | – | – | – | – | – | – | – | Kd (KLF5^K369Q protein): > 30 µM; Kd (KLF5 protein): > 30 µM; Kd (KLF5^K369R protein): > 30 µM
CSCC1CN(/N=C/c2ccc([N+](=O)[O-])o2)C(=O)O1 (stereo not drawn) [Nifuratel] | 18.6 ± 0.7 | 16.2 ± 0.8 | 14 ± 0.2 | 32 ± 1.6 | 7.1 ± 0.7 | 18.7 ± 1 | 70 | 59.9 | 93.9 | 60.6 | 7.32 | 8.43 | 3.12 | 0.26 | 1.46 | > 50 | 82.6 | –
CNC(=O)c1cc(Oc2ccc(NC(=O)Nc3ccc(Cl)c(C(F)(F)F)c3)cc2)ccn1 [Sorafenib] | – | – | – | – | – | – | 91.9 | – | – | 91.9 | – | 76.2 | – | 43.3 | – | – | 101 | –
CC(=O)OC[C@H]1O[C@@H]([S-])[C@H](OC(C)=O)[C@@H](OC(C)=O)[C@@H]1OC(C)=O.CCP(CC)CC.[Au+] [Auranofin] | – | – | – | – | – | – | – | – | – | – | – | – | – | – | – | – | – | Invasion rates (%) of each drug’s multiple concentrations (μM) (PC-3-KQ cells; [7]): 98.81%; Invasion rates (%) of each drug’s multiple concentrations (μM) (PC-3-KQ cells; [8]): 93.68%; Invasion rates (%) of each drug’s multiple concentrations (μM) (PC-3-KQ cells; [16]): 100.66%; Invasion rates (%) of each drug’s multiple concentrations (μM) (PC-3-KQ cells; [9]): 97.35%; Invasion rates (%) of each drug’s multiple concentrations (μM) (PC-3-KQ cells; [10]): 95.62%; Invasion rates (%) of each drug’s multiple concentrations (μM) (PC-3-KQ cells; [11]): 88.21%; Invasion rates (%) of each drug’s multiple concentrations (μM) (PC-3-KQ cells; [12]): 2.03%; Invasion rates (%) of each drug’s multiple concentrations (μM) (PC-3-KQ cells; [13]): 2.34%; Invasion rates (%) of each drug’s multiple concentrations (μM) (PC-3-KQ cells; [14]): 0.38%; Invasion rates (%) of each drug’s multiple concentrations (μM) (PC-3-KQ cells; [15]): 0.76%
O.O.O.O.O.O.O.O=C1N=C([O-])CN1/N=C/c1ccc(-c2ccc([N+](=O)[O-])cc2)o1.O=C1N=C([O-])CN1/N=C/c1ccc(-c2ccc([N+](=O)[O-])cc2)o1.[Na+].[Na+] [Dantrolene (sodium hemiheptahydrate)] | – | – | – | – | – | – | – | – | – | – | – | – | – | – | – | – | – | Invasion rates (%) of each drug’s multiple concentrations (μM) (PC-3-KQ cells; [7]): 102.88%; Invasion rates (%) of each drug’s multiple concentrations (μM) (PC-3-KQ cells; [16]): 101.64%; Invasion rates (%) of each drug’s multiple concentrations (μM) (PC-3-KQ cells; [10]): 90.54%; Invasion rates (%) of each drug’s multiple concentrations (μM) (PC-3-KQ cells; [12]): 82.27%; Invasion rates (%) of each drug’s multiple concentrations (μM) (PC-3-KQ cells; [14]): 29.15%
O=C(Cn1ccnc1[N+](=O)[O-])NCc1ccccc1 [Benznidazol] | – | – | – | – | – | – | 92.5 | – | – | 88.1 | – | 90.9 | – | 4.48 | – | – | 94.3 | –
